Data: patent US20150087677A1, “METHODS FOR TREATING VESTIBULOTOXICTY” (priority 2012, published 2015)

How the values were obtained:
[1] = test system: cisplatin induced vestibulotoxicity; assay: Induced deficits of vestibular behavior after transtympanic cisplatin (vestibular deficit score); type: in vivo, rat; settings: for time after the lesion at which protective effects are first observed: effects persist over the following days
Procedure: Vestibular deficit associated behaviors were scored on a scale from 0 to 4, respectively ranging from normal behavior (rating 0) to maximal identified vestibular impairment (rating 4). […] Rats were scored for vestibular deficits after transtympanic injection of cisplatin (50 μl, 2 mg/ml) and, evaluated from 4 to 336 hrs after the injection (FIG. 4). Scores were expressed as mean (±sem). For preventive treatment, injection of cimetidine (i.p., 12 mg/kg) was injected 4 hours before the transtympanic injection of cisplatin. Sham animals received saline (i.p) 4 hours before the lesion. To focus on the preventive action of transtympanic injection of the compounds of the invention in the first 72 hours, ototoxicity is induced by a transtympanic injection (50 μl) of cisplatin (2 mg/ml in saline; 6.7 mM) and a determined ratio of corresponding molar dose of compounds are premixed and injected transtympanically with cisplatin. For example, for the dose ratio 1/2 of compound/cisplatin, a solution of 3.5 mM of compound of interest in addition to the 6.7 mM of cisplatin in saline is prepared and, 50 μl of this mixed saline solution is injected transtympanically at TO. Different control animals are run in parallel: saline only, cisplatin (6.7 mM) only to control the initial lesion, and the compounds of interest alone at different doses in saline to control potential ototoxicity of the compound independently of cisplatin, are with cisplatin. […] For transtympanic experiments, rats were scored for vestibular deficits just before the transtympanic injection, TO and, evaluated at 24, 48 & 72 hours after the injection (FIGS. 5 to 11). Scores were expressed as mean (±sem).

[2] = test system: vestibular hair cells; type: cell-based, rat; settings: co-treatment with cimetidine (1000 μM) and cisplatin for 48 hrs, FIG. 3
Procedure: Vestibular end organs were aseptically removed from animals. Explants composed of sensory and nonsensory epithelia were placed on 5 μl of growth factor-reduced Matrigel on laminin (10 μg/ml)-coated glass coverslips. These preparations were incubated for 30 min at 37° C. in a 95%/5% O2/CO2 atmosphere at saturating moisture. Explants were then cultured in DMEM and F12 (50%/50% v/v) media supplemented with N2 mixture (2%). The medium was renewed every 4 d. […] Treated cultures were then fixed with PAF 4% for 1 hr. Labeling of hair bundles was processed using Alex488-conjugated phalloidin (1:700) overnight. After rinsing with PBS, cultures were mounted in Moviol (Calbiochem). Labelling was observed and image digitalized using an apotome microscope (Zeiss). Hair bundles per utricle were quantified using ImageJ software. Statistical analysis was processed with SigmaPlot software (Systat Software). Final image processing was performed with Adobe Photoshop software.

[3] = transtympanic injection, FIGS. 5 to 11
[4] = transtympanic injection premixed with cisplatin, rats, FIGS. 5 to 11

Row | Compound | time after the lesion at which protective effects are first observed [1, 3] [h] | effect on cisplatin-induced vestibular hair cell loss in vitro [2] | effect on vestibular toxicity and behavioral deficits induced by cisplatin ([1]; adult rats, systemic (i.p., 12 mg/kg) pretreatment 4 hrs before transtympanic cisplatin, FIG. 4) | time after the lesion at which protective effects are first observed ([1]; systemic (i.p.) pretreatment t-4 hrs, FIG. 4) [h] | effect on vestibular toxicity and behavioral deficits induced by cisplatin [1, 4]
1 | CNC(=C[N+](=O)[O-])NCCSCc1ccc(CN(C)C)o1 [ranitidine] | 24 |  |  |  | 
2 | COc1ccc2[nH]c([S+]([O-])Cc3ncc(C)c(OC)c3C)nc2c1 (stereo not shown) [omeprazole] | 24 |  |  |  | 
3 | COc1ccnc(C[S+]([O-])c2nc3ccc(OC(F)F)cc3[nH]2)c1OC (stereo not shown) [pantoprazole] | 24 |  |  |  | 
4 | CN/C(=N/CCSCc1nc[nH]c1C)NC#N [cimetidine] | 24 | reduces vestibular hair cell loss | reduces the vestibular toxicity and behavioral deficits | 48 | reduces the vestibular toxicity and behavioral deficits
5 | Cc1c(OCC(F)(F)F)ccnc1C[S+]([O-])c1nc2ccccc2[nH]1 (stereo not shown) [lansoprazole] | 24 |  |  |  | reduces the vestibular toxicity and behavioral deficits
6 | COCCCOc1ccnc(C[S+]([O-])c2nc3ccccc3[nH]2)c1C (stereo not shown) [rabeprazole] | 24 |  |  |  | 
7 | CNC(=C[N+](=O)[O-])NCCSCc1csc(CN(C)C)n1 [nizatidine] | 24 |  |  |  | reduces the vestibular toxicity and behavioral deficits
